Reference: patent US20250109134A1 (Ascentage Pharma (Suzhou) Co., Ltd., priority 2022, published 2025)
Counter-ions that a name gives are not always drawn.

Assays:
Format in all cases: physicochemical
[1] = Stability study, content and related substances (TRS, total impurity content) by HPLC; conditions: for chemical stability (HPLC, TRS total impurity content): open, 60° C., RT/92.5% RH, RT/75% RH, 40° C./75% RH, up to 30 days
Procedure: In the present invention, the HPLC (high performance liquid chromatography) test parameters are set as follows:
Then, the sample flasks were opened to air (sealed with aluminum foil punctured with small holes) and placed in constant temperature and humidity cabinets at high temperature (60° C.), at room temperature and high humidity ([…]), at RT/75% RH, and at 40° C./75% RH for 30 days, respectively, […]

[2] = XRPD characterization (crystallinity), summary evaluation; conditions: summary of forms
Text: In the present invention, the XRPD test parameters are set as follows: […]

[3] = Dynamic vapor sorption (DVS) hygroscopicity test; conditions: for hygroscopic weight gain (DVS): 25° C. and 80% RH; for hygroscopicity (DVS), in words: 80% RH; for crystalline form before and after hygroscopic test (XRPD after DVS): XRPD of sample after DVS
Text: In the present invention, the DVS test parameters are set as follows: […]

[4] = Polymorph screening (suspension, anti-solvent, gas-liquid diffusion, slow volatilization methods), resulting form by XRPD; conditions: for Crystalline form: suspension method; for Crystalline form results 25° C. / Crystalline form results 50° C.: suspension, from crystalline form B
Procedure: The sample was quickly centrifuged (6000 rpm, 5 min) to remove a supernatant. The resulting precipitate was subjected to vacuum drying (40° C., −0.1 MPa) for 20 h, followed by physical characterization.
The resulting precipitate was subjected to vacuum drying at 40° C. for 20 h, followed by physical characterization.
No clear solution was obtained, and the sample was still undissolved after 1 mL of solvent was added. Then, 500 μL of poor solvent (acetone, ACN, MeOH, EtOAc, THE, or […]) was added, and 40 mg of the sample was added to perform an experiment by a suspension method. All suspension samples were stirred at 50° C. for 2 days and quickly centrifuged (6000 rpm, 5 min) to remove a supernatant. The resulting solid was subjected to vacuum drying at 40° C. for 20 h, followed by physical characterization.
The compound of formula I was subjected to polymorph screening with DCM as a good solvent and with MeOH, EtOH, THE, or EA as an anti-solvent, and was dissolved in both DCM and MeOH systems. The suspension sample was stirred for 2 days and quickly centrifuged to remove a supernatant. The resulting precipitate was subjected to vacuum drying at 25° C. for 20 h, followed by physical characterization.
The resulting precipitate was subjected to vacuum drying at room temperature for 20 h, followed by physical characterization.
The resulting precipitate was subjected to vacuum drying for 20 h.
Sonication was performed for 1 min to obtain a clear solution, which was filtered through a 0.22 μm filter membrane and aliquoted into seven 8 mL glass flasks. An anti-solvent was added until precipitation occurred. The sample was stirred at room temperature for 1 day and quickly centrifuged. The resulting solid precipitate was subjected to vacuum drying.
Then, an anti-solvent was added until precipitation occurred, and the mixture was stirred at room temperature overnight and quickly centrifuged (6000 rpm, 6 min) to remove a supernatant. The resulting precipitate was subjected to vacuum drying for 20 h.
Then, the solution was added to a 20 mL glass flask containing 2 mL of an anti-solvent (shown in the following table), and the flask was tightly capped at room temperature and placed in a fume hood for diffusion. When precipitation occurred, the flask was taken out, and the resulting precipitate was subjected to vacuum drying for 20 h.
The flask placed in a fume hood at room temperature for diffusion. When precipitation occurred, the flask was taken out, and the resulting precipitate was subjected to vacuum drying for 20 h.
The mixture was stirred at 50° C. or room temperature for 6 days and quickly centrifuged (6000 rpm, […]) to remove a supernatant. The resulting precipitate was subjected to vacuum drying for 20 h.

[5] = Stability study, solid form by XRPD after open storage at high temperature / high humidity; conditions: open, 60° C.; RT/92.5% RH; RT/75% RH; 40° C./75% RH; 30 days
Procedure: In the present invention, the XRPD test parameters are set as follows:
Then, the sample flasks were opened to air (sealed with aluminum foil punctured with small holes) and placed in constant temperature and humidity cabinets at high temperature (60° C.), at room temperature and high humidity (RT/92.5% RH), at RT/75% RH, and at 40° C./75% RH for 30 days, respectively, and samples were taken at days 5, 10 and 30 for XRPD and HPLC detection.

[6] = solvent Acetone-H2O = 1-2, 2 days

Structure (SMILES): CC(C)N1Cc2cc(C(F)(F)F)ncc2-c2cnc(NCc3c(F)ccc4c3CCO4)n3cnc(c23)C1=O.Cl [Crystalline form A of hydrochloride salt]
- TRS(%) ([1]; 40° C./75RH %-5 d, open storage): 0.30%
- TRS(%) ([1]; 40° C./75RH %- 10 d, open storage): 0.28%
- TRS(%) ([1]; 40° C./75RH %- 30 d, open storage): 0.28%
- TRS(%) ([1]; 60° C.-5 d, open storage): 0.28%
- TRS(%) ([1]; 60° C.-10 d, open storage): 0.34%
- TRS(%) ([1]; 60° C.-30 d, open storage): 0.27%
- TRS(%) ([1]; Initial, TRS = total impurity content, HPLC): 0.31%
- TRS(%) ([1]; RT/75% RH 7 d, open storage): 0.26%
- TRS(%) ([1]; RT/75% RH 10 d, open storage): 0.26%
- TRS(%) ([1]; RT/75% RH 30 d, open storage): 0.37%
- TRS(%) ([1]; RT/90RH %-5 d, open storage): 0.28%
- TRS(%) ([1]; RT/90RH %-10 d, open storage): 0.26%
- TRS(%) ([1]; RT/90RH %-30 d, open storage): 0.27%

Structure (SMILES): CC(C)N1Cc2cc(C(F)(F)F)ncc2-c2cnc(NCc3c(F)ccc4c3CCO4)n3cnc(c23)C1=O.CS(=O)(=O)O [Methanesulfonate salt Crystalline form A]
- Evaluation results: crystallinity [2]: High crystallinity

Structure (SMILES): CC(C)N1Cc2cc(C(F)(F)F)ncc2-c2cnc(NCc3c(F)ccc4c3CCO4)n3cnc(c23)C1=O.O=S(=O)(O)O [Sulfate Crystalline form A]
- Evaluation results: hygroscopicity ([3]; summary of forms): Slight hygroscopicity

Structure (SMILES): CC(C)N1Cc2cc(C(F)(F)F)ncc2-c2cnc(NCc3c(F)ccc4c3CCO4)n3cnc(c23)C1=O [compound of formula I]
- Crystalline form ([4]; solvent DCM/EA = 1-1, stirred 2 days): Crystalline form A
- Crystalline form ([4]; solvent DCM/EtOH = 2-1, stirred 2 days): Crystalline form A
- Crystalline form ([4]; solvent DCM/THF = 1-1, stirred 2 days): Crystalline form A
- Crystalline form ([4]; solvent DCM, stirred 2 days): Crystalline form A
- Crystalline form ([4]; solvent DMF/H2O = 1/3, 50° C., 2 days): Crystalline form B + DMF solvate
- Crystalline form ([4]; solvent DMF, 50° C., 2 days): Crystalline form B + DMF solvate
- Crystalline form ([4]; solvent NMP/ACN = 1/3, 50° C., 2 days): N-methyl-2-pyrrolidone solvate
- Crystalline form ([4]; solvent NMP/EtOAc = 1/3, 50° C., 2 days): N-methyl-2-pyrrolidone solvate
- Crystalline form ([4]; solvent NMP/H2O = 1/3, 50° C., 2 days): Crystalline forms A + B
- Crystalline form ([4]; solvent NMP/MeOH = 1/3, 50° C., 2 days): N-methyl-2-pyrrolidone solvate
- Crystalline form ([4]; solvent NMP/THF = 1/3, 50° C., 2 days): N-methyl-2-pyrrolidone solvate
- Crystalline form ([4]; solvent NMP/acetone = 1/3, 50° C., 2 days): N-methyl-2-pyrrolidone solvate
- Crystalline form ([4]; solvent NMP, 50° C., 2 days): N-methyl-2-pyrrolidone solvate

Structure (SMILES): CC(C)N1Cc2cc(C(F)(F)F)ncc2-c2cnc(NCc3c(F)ccc4c3CCO4)n3cnc(c23)C1=O [crystalline form A of the compound of formula I]
- hygroscopic weight gain (DVS) [3]: 0.44%
- hygroscopicity (DVS), in words [3]: slight hygroscopicity
- chemical stability (HPLC, TRS total impurity content) [1]: good chemical stability
- change in the crystalline form after storage (XRPD), physical stability [5]: no change in the crystalline form

Structure (SMILES): CC(C)N1Cc2cc(C(F)(F)F)ncc2-c2cnc(NCc3c(F)ccc4c3CCO4)n3cnc(c23)C1=O [crystalline form A of the hydrochloride salt of the compound]
- hygroscopic weight gain (DVS) [3]: 0.31%
- hygroscopicity (DVS), in words [3]: slight hygroscopicity
- crystalline form before and after hygroscopic test (XRPD after DVS) [3]: did not change
- chemical stability (HPLC, TRS total impurity content) [1]: good chemical stability
- change in the crystalline form after storage (XRPD), physical stability [5]: no change in the crystalline form

Structure (SMILES): CC(C)N1Cc2cc(C(F)(F)F)ncc2-c2cnc(NCc3c(F)ccc4c3CCO4)n3cnc(c23)C1=O [crystalline form A of the methanesulfonate salt of the compo]
- hygroscopic weight gain (DVS) [3]: 0.84%
- hygroscopicity (DVS), in words [3]: slight hygroscopicity
- crystalline form before and after hygroscopic test (XRPD after DVS) [3]: did not change
- change in the crystalline form after storage (XRPD), physical stability [5]: no change in the crystalline form

Structure (SMILES): CC(C)N1Cc2cc(C(F)(F)F)ncc2-c2cnc(NCc3c(F)ccc4c3CCO4)n3cnc(c23)C1=O [crystalline form A of the sulfate salt of the compound of fo]
- hygroscopic weight gain (DVS) [3]: 1.43%
- hygroscopicity (DVS), in words [3]: slight hygroscopicity
- crystalline form before and after hygroscopic test (XRPD after DVS) [3]: did not change
- change in the crystalline form after storage (XRPD), physical stability [5]: no change in the crystalline form

Structure (SMILES): CC(C)N1Cc2cc(C(F)(F)F)ncc2-c2cnc(NCc3c(F)ccc4c3CCO4)n3cnc(c23)C1=O [crystalline form B of the compound of formula I]
- hygroscopic weight gain (DVS) [3]: 0.84%
- hygroscopicity (DVS), in words [3]: slight hygroscopicity
- chemical stability (HPLC, TRS total impurity content) [1]: good chemical stability
- change in the crystalline form after storage (XRPD), physical stability [5]: no change in the crystalline form

Structure (SMILES): CC(C)N1Cc2cc(C(F)(F)F)ncc2-c2cnc(NCc3c(F)ccc4c3CCO4)n3cnc(c23)C1=O [crystalline form B]
- Crystalline form results 25° C. ([4]; solvent ACN, 2 days): Crystalline form A
- Crystalline form results 50° C. ([4]; solvent ACN, 2 days): Crystalline form A
- Crystalline form results 25° C. ([4]; solvent ACN—H2O = 1-1, 2 days): Crystalline form A
- Crystalline form results 50° C. ([4]; solvent ACN—H2O = 1-1, 2 days): Crystalline form A
- Crystalline form results 25° C. [4, 6]: Crystalline form B
- Crystalline form results 50° C. [4, 6]: Crystalline form B
- Crystalline form results 25° C. ([4]; solvent Acetone, 2 days): Crystalline form B
- Crystalline form results 50° C. ([4]; solvent Acetone, 2 days): Crystalline form B
- Crystalline form results 50° C. ([4]; solvent EtOAc, 2 days): Crystalline form B
- Crystalline form results 25° C. ([4]; solvent EtOH, 2 days): Crystalline form B
- Crystalline form results 50° C. ([4]; solvent EtOH, 2 days): Crystalline form A
- Crystalline form results 25° C. ([4]; solvent EtOH—H2O 1-1, 2 days): Crystalline form B
- Crystalline form results 50° C. ([4]; solvent EtOH—H2O 1-1, 2 days): Crystalline form A
- Crystalline form results 25° C. ([4]; solvent EtOH—H2O = 3-1, 2 days): Crystalline form B
- Crystalline form results 50° C. ([4]; solvent EtOH—H2O = 3-1, 2 days): Crystalline form A
- Crystalline form results 25° C. ([4]; solvent H2O, 2 days): Crystalline form B
- Crystalline form results 50° C. ([4]; solvent H2O, 2 days): Crystalline form B
- Crystalline form results 25° C. ([4]; solvent Heptane, 2 days): Crystalline form B
- Crystalline form results 25° C. ([4]; solvent MTBE, 2 days): Crystalline form E
- Crystalline form results 50° C. ([4]; solvent MTBE, 2 days): Crystalline form G
- Crystalline form results 25° C. ([4]; solvent MeOH, 2 days): Crystalline form A
- Crystalline form results 50° C. ([4]; solvent MeOH, 2 days): Crystalline form A
- Crystalline form results 25° C. ([4]; solvent MeOH—H2O 1-1, 2 days): Crystalline form F
- Crystalline form results 50° C. ([4]; solvent MeOH—H2O 1-1, 2 days): Crystalline form A
- Crystalline form results 25° C. ([4]; solvent MeOH—H2O = 3-1, 2 days): Crystalline form A
- Crystalline form results 25° C. ([4]; solvent THF, 2 days): Crystalline form B
- Crystalline form results 50° C. ([4]; solvent THF, 2 days): Crystalline form B
- Crystalline form results 25° C. ([4]; solvent Toluene, 2 days): Toluene solvate

Structure (SMILES): CC(C)N1Cc2cc(C(F)(F)F)ncc2-c2cnc(NCc3c(F)ccc4c3CCO4)n3cnc(c23)C1=O.Cc1ccc(S(=O)(=O)O)cc1 [p-toluenesulfonate Crystalline form A]
- Evaluation results: crystallinity [2]: High crystallinity
